Source: article doi:10.1101/2024.02.23.581731v1 (biorxiv, 2024)

Molecular target: T1, h5-HT3AR (Homo sapiens, UniProt P46098)
T1 sequence (P46098 24-478): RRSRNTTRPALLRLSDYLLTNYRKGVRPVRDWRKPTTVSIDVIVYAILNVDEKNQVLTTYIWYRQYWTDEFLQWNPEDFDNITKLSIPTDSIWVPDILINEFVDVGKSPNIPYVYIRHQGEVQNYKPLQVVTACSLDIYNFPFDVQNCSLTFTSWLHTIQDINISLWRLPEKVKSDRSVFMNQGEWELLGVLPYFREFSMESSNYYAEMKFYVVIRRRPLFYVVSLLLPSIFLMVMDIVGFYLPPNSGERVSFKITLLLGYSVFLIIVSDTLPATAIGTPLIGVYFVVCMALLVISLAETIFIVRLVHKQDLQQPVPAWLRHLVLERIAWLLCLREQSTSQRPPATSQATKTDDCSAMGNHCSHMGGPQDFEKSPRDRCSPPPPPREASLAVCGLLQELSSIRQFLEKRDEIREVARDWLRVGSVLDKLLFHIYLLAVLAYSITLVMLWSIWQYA
Experiment: FLIPR Blue membrane potential assay, inhibition of 5-HT response
Type: cell-based

Cc1ccc(Sc2ccccc2N2CCNCC2)c(C)c1 [vortioxetine]
IC50: 20 nM
